This note sets out measurements from PMC12116762, “Topobexin targets the Topoisomerase II ATPase domain for beta isoform-selective inhibition and anthracycline cardioprotection” (Nature Communications, 2025).

Common to all, as to assay type: cell-based
In one assay the target is T1, YFP-TOP2A (Homo sapiens, UniProt P11388).
T1 construct: Using recombinant full-length human TOP2A and TOP2B enzymes; expressed in transfected cells; host or cells: HEK293F
The assay is described as follows: FRAP analysis, YFP-TOP2A in HEK293F cells. Conditions: 0.25 and 1 μM. As for the experimental part:
(§1) HEK293F cells were transfected with DNA plasmids encoding yellow-fluorescent protein (YFP)-TOP2A or YFP-TOP2B (the same DNA constructs for mammalian protein expression and purification) using Lipofectamine 2000 (Thermo Fisher Scientific). Cells were cultured for 24 h post transfection and YFP signals were confirmed prior to FRAP experiments. Transfected cells were plated on glass-bottomed culture dishes (Matsunami) and rested overnight. The next day, each dish was pre-incubated with the indicated inhibitor treatment or DMSO control for 15 min prior to FRAP experiment. Each set of experiments was repeated on at least two different days using newly transfected cells each time. Live-cell imaging was done using a LSM 980 microscope (Carl Zeiss Microscopy, LLC). YFP signal was excited at 508 nm at 2% laser power and detected through a 516–604 nm range. A small area within the nucleus (purple box) is manually selected for fluorescence bleaching at 100% laser power for 50 iterations. Inhibition of TOP2 by obex inhibitors was detected by impairment in fluorescence recovery at 15 s post bleaching, as a lack of inhibition allows for TOP2 diffusion throughout the nucleus.

For the next assay, the target named is T2, YFP-TOP2B (Homo sapiens, UniProt Q02880).
T2 construct: Using recombinant full-length human TOP2A and TOP2B enzymes; expressed in transfected cells; host or cells: HEK293F
As to the kind of experiment: FRAP analysis, YFP-TOP2B in HEK293F cells. Particulars: 0.25 and 1 μM. As for the experimental part:
as §1

Assay [1] concerns the target T3, TOP2A-DNA covalent complex (Homo sapiens, UniProt P11388).
T3 construct: endogenous in cells; host or cells: HEK293F
The assay is described as follows: RADAR assay, etoposide-induced TOP2A-DNA covalent complex in HEK293F cells. Particulars: for TOP2A spot intensity: independent replicates. As for the experimental part:
(§2) HEK293F cells were plated at 3 × 10^5 cells per well and grown overnight. […] Upon removal of media, cells in each well were immediately lysed with 750 µL DNAzol (Molecular Research Center, Inc.) and the DNA was precipitated by addition of 375 µL of 100% ethanol. This step was then repeated to eliminate protein aggregates. Precipitate from each sample was pelleted via centrifugation at 4 °C and max speed for 5 min. The pellets were washed twice with buffer containing 20 mM Tris pH 7.5, 1 mM EDTA pH 8.0, 50 mM NaCl, 50% EtOH, and at the end of each wash, centrifugation at 4000 × g for 2 min was repeated to isolate the DNA pellets. The pellets were washed in 75% EtOH and then collected by centrifugation at 4 °C and max speed for 5 min. The supernatant was removed via pipetting, and the remaining pellets were air dried for 5 min before 50 µL 8 mM NaOH and 0.1% Tween-20 was added to each pellet. Once no visible precipitate remained, each mixture was supplemented with 5 µL of Benzonase buffer containing 500 mM Tris pH 8.0, 10 mM MgCl2, 1/1000 Roche complete protease inhibitor cocktail (Millipore Sigma) and 40 units Benzonase (Millipore Sigma) followed by 30 to 60 min incubation at 37 °C until the pellets were fully dissolved. The DNA content from each sample was quantified on a nanodrop, and 10 µg of DNA was diluted to a final volume of 200 µL in 8 mM NaOH and 0.1% Tween. The samples were applied over the Whatman Minifold I dot blot apparatus (Cytiva) and collected on a PVDF membrane (Thermo Fisher Scientific). The membrane was washed three times with 8 mM NaOH and 0.1% Tween-20 solution prior to removal and blocking with the same wash solution containing 1 mg/mL BSA. Western blotting was carried out on an iBind (Thermo Fisher Scientific) and TOP2 proteins were detected using isoform-specific antibody against full length TOP2A (1:250 dilution; HT2A21, Inspiralis) and TOP2B (1:500 dilution; 611493, BD Biosciences) and visualized with anti-rabbit (1:1000 dilution; 926-68071, LI-COR Bio) and anti-mouse (1:1000 dilution; 926-32210, LI-COR Bio) secondary antibodies in iBind running buffer. The blots were imaged on a LI-COR Odyssey Fc and analysed using ImageStudio. Each presented data point was obtained from distinct sample.

Assay [2] deals with T4, TOP2B-DNA covalent complex (Homo sapiens, UniProt Q02880).
T4 construct: endogenous in cells; host or cells: HEK293F
As to the kind of experiment: RADAR assay, etoposide-induced TOP2B-DNA covalent complex in HEK293F cells. Conditions: for TOP2B spot intensity: independent replicates. As for the experimental part: as §2

[3] abbreviates: Cmpd 9 10 μM, etoposide 0, background subtracted.

The structures appear in SMILES notation. Several values for one entry are separate records, joined by “and”; a condition that tells them apart may be missing. Equal entries are not always repeated.

T3 sequence (P11388 whole entry, one chain of several): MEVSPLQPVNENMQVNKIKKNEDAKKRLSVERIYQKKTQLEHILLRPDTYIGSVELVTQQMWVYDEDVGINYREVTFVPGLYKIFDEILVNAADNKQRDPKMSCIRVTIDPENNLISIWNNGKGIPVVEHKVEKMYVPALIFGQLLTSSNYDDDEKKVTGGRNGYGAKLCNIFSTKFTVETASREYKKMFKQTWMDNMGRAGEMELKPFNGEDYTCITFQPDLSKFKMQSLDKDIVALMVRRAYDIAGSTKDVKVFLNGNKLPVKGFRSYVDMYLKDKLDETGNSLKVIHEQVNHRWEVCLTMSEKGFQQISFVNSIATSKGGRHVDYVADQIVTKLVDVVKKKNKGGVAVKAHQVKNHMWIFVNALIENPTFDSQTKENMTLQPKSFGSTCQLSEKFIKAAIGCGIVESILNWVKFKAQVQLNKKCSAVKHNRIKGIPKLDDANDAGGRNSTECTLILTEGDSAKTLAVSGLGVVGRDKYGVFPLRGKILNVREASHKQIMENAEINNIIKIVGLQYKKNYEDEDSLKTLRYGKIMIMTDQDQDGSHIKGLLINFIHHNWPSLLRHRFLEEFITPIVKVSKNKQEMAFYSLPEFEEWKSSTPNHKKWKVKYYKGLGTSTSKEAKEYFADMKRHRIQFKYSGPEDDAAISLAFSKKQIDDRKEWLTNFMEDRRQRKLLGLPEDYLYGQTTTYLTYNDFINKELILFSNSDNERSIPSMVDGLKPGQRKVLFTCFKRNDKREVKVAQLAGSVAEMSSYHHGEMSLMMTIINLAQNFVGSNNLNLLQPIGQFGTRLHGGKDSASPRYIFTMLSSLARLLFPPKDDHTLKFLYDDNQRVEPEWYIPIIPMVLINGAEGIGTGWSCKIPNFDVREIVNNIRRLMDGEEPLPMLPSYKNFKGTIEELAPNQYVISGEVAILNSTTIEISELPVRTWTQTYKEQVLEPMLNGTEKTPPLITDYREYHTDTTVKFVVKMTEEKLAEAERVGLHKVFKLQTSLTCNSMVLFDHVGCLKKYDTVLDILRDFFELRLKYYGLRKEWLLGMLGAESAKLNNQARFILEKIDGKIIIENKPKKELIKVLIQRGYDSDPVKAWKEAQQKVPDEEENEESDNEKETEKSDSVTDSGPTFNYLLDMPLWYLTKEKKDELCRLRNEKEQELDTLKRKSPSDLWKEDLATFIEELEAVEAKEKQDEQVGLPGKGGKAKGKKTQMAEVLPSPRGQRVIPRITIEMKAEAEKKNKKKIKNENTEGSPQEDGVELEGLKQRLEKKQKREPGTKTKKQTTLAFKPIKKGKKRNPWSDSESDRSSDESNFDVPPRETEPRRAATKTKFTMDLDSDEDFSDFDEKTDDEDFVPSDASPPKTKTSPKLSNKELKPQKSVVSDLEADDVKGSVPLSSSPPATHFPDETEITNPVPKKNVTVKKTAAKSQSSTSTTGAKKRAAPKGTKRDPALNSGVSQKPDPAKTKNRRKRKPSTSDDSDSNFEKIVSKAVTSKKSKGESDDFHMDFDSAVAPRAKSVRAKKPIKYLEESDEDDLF
T4 sequence (Q02880 2-1626 limits assumed, one chain of several): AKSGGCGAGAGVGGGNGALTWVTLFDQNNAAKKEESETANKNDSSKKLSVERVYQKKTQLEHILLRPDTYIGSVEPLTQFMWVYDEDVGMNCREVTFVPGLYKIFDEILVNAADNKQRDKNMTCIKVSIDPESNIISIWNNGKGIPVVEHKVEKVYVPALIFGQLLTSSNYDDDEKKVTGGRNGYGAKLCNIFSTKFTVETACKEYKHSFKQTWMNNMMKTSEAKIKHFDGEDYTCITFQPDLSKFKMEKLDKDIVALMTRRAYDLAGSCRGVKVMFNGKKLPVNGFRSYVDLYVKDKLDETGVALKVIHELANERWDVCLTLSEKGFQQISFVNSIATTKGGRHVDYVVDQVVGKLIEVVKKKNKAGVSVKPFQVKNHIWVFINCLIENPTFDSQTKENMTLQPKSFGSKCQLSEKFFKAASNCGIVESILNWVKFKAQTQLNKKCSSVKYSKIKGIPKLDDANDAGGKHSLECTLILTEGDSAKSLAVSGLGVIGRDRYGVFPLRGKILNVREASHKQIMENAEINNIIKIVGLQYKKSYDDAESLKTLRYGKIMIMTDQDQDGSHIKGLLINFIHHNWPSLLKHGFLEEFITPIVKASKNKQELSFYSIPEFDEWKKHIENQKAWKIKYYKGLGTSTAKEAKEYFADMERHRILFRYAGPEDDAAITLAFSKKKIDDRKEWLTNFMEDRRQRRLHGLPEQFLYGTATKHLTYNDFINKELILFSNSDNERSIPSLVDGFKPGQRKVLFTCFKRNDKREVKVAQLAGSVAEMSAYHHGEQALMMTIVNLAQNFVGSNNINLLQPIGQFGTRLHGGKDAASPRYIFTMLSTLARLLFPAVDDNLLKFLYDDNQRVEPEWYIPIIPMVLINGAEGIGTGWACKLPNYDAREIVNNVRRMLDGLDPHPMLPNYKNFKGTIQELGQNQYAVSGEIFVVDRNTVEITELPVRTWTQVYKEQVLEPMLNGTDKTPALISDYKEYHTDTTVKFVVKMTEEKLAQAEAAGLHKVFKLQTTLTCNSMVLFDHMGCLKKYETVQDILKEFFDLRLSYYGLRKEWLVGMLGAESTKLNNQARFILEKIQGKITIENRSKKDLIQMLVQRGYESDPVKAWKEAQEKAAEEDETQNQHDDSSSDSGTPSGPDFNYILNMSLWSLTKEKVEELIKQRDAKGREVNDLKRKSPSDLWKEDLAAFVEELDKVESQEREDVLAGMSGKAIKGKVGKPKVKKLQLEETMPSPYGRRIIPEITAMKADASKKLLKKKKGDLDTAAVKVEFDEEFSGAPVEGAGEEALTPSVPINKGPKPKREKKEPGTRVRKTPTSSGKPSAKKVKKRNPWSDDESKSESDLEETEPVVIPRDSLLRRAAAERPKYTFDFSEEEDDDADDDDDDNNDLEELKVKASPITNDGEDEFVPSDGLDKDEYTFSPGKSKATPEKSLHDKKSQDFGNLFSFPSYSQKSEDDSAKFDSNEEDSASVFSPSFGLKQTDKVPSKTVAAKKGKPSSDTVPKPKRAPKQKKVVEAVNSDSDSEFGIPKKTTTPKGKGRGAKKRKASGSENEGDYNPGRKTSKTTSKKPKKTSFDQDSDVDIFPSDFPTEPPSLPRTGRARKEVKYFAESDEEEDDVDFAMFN
T1 sequence (P11388 whole entry): as the sequence (P11388 whole entry, one chain of several) above
T2 sequence (Q02880 1-1621 isoform Q02880-2): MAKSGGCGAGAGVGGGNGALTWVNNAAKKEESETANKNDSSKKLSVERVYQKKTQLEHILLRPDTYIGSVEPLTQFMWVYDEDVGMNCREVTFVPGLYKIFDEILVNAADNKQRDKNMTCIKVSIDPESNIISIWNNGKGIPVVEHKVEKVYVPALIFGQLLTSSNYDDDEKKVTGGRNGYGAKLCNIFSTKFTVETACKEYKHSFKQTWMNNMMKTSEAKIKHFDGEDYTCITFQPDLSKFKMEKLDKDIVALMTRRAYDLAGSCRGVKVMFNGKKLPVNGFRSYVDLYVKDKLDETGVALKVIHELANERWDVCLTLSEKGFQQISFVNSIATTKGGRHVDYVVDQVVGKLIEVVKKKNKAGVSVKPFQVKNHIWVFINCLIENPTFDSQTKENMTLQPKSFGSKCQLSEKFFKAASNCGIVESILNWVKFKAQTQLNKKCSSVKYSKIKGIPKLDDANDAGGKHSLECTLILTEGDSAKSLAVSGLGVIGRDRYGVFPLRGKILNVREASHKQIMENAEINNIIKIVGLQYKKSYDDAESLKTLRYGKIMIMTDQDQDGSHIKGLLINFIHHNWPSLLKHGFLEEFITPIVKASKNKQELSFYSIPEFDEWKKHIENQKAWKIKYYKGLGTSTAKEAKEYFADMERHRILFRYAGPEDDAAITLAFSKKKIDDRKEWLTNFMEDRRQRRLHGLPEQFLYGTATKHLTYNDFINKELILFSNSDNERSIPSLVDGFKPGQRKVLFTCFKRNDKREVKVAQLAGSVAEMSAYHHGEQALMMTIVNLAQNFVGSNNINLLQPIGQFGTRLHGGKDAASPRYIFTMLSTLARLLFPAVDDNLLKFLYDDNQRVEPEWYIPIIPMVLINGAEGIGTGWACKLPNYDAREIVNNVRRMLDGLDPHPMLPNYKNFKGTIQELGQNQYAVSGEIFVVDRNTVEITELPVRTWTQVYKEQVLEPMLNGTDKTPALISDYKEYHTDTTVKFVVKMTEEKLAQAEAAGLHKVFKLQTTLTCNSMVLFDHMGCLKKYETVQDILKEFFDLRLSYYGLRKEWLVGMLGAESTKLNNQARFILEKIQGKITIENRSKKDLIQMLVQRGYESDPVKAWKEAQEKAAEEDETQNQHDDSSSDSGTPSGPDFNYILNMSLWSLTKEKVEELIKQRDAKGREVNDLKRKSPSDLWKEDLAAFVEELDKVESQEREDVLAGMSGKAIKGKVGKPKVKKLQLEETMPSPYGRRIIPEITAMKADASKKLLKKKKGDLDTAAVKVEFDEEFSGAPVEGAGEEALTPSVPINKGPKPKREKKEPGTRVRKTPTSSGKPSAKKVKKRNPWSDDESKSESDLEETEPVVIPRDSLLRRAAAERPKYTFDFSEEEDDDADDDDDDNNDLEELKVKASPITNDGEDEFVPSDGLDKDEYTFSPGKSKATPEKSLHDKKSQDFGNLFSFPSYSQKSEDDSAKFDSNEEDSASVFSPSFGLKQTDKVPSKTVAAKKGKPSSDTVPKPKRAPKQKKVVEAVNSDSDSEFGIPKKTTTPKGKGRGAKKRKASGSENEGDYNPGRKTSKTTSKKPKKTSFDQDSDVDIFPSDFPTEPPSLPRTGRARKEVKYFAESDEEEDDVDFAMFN

Take `CCCc1cc(=O)oc2c(C(=O)N3CCCc4ccccc43)c(OCCN3CCN(C)CC3)ccc12` [topobexin (9)]: the “mobility of TOP2A (FRAP)” value on YFP-TOP2A is reported as “not affected”. Further, the “recovery of fluorescence for TOP2B in photobleached area” value on YFP-TOP2B is on record as “impaired”. Also, the TOP2A spot intensity in assay [1] (Cmpd 9 0.1 μM + etoposide 5 μM) was 56.77 and 79.14 and 121.2 and 109.4 and 138; in assay [1] (Cmpd 9 1 μM + etoposide 5 μM) it was 31.84 and 81.31 and 94.03 and 77.86 and 117.3; in assay [1] (Cmpd 9 10 μM + etoposide 5 μM), 13.9 and 41.59 and 30.46 and 21.29 and 12.52; in assay [1] (setting [3]), 0.2099 and 13.4 and 11.83 and 3.115 and 7.885. The “concentration significantly reducing TOP2A-DNA CC” value in assay [1] (etoposide-induced, HEK293F) turned out to be 10 µM. Besides, the TOP2B spot intensity is 104.7 and 108 and 35.48 and 44.18 and 86.39 in assay [2] (Cmpd 9 0.1 μM + etoposide 5 μM); 30.03 and 46.96 and 8.418 and 33.86 and 32.47 in assay [2] (Cmpd 9 1 μM + etoposide 5 μM); 9.497 and 0.7143 and 3.351 and 13.57 and 7.34 in assay [2] (Cmpd 9 10 μM + etoposide 5 μM); 0.7839 and 1.705 and 2.435 and 8.291 and 6.459 in assay [2] (setting [3]). The “concentration significantly reducing TOP2B-DNA CC” value in assay [2] (etoposide-induced, HEK293F) turned out to be 1 µM.
